Reference: patent US20110207741A1, “Activation of the Renin-Angiotensin System (RAS) and Sudden Cardiac Death” (THE BOARD OF TRUSTEES OF THE UNIVERSITY OF ILLINOIS, priority 2010, published 2011)
“And” between values parts separate entries of the source, which are not always exact repeats. Equal entries are not always repeated.

Key:
Cx43 [1] = assay: Immunohistochemistry (immunostaining) for Cx43 in mouse hearts; assay type: in vivo
Procedure: (§1) The animal experiments were conducted according to the National Institutes of Health (NIH) Guide for the Care and Use of Experimental Animals and were approved by the University of Illinois Institutional Animal Care and Use Committee. Mice of both sexes were treated with 1.5-mg/kg PP1 (Enzo Life Sciences, Plymouth Meeting, Pa.), a specific inhibitor of c-Src tyrosine kinase, twice weekly for 4 consecutive weeks by intraperitoneal injection (21-23). PP3 (Enzo Life Sciences) was administered intraperitoneally at the same dose (1.5 mg/kg twice weekly for 4 consecutive weeks). The treatment of all animals was initiated when the mice were 30 days old.
The mouse hearts were fixed in 10% formalin, after which 8-μm thick sections were blocked for 1 hour at room temperature and were then incubated with anti-Cx43 antibodies overnight at 4° C. at concentrations known to provide the best signal-to-noise ratio. The slides were reviewed with a Zeiss Axioskop microscope (Carl Zeiss, Inc, Thornwood, N.Y.), and photomicrographs with original magnification×40 were taken from the apex, the mid-left ventricle (LV), and the LV base. From each of those sites, photomicrographs were taken from the endocardium and epicardium. The Cx43 content was quantified with the use of a grid that divided the field of view into 200 squares. At the intersection points aligning with the intercalated disks, Cx43 was scored as “1” (present) or “0” (absent). The results were expressed as the percentage occupied by Cx43 in the total area examined, excluding pseudospaces. This method has been used previously to quantify levels of collagen and Cx43 in cardiac tissue (24; 25).

c-Src = target: T1, c-Src (Mus musculus, UniProt P05480); assay: Western blot of ventricular tissue, total c-Src; assay type: in vivo; settings: four weeks i.p. treatment, corrected for GAPDH
T1 construct: The ventricular tissue was homogenized in a buffer; from tissue; host or cells: mouse ventricular tissue (wild-type and ACE8/8 mice)
T1 sequence (P05480 whole entry): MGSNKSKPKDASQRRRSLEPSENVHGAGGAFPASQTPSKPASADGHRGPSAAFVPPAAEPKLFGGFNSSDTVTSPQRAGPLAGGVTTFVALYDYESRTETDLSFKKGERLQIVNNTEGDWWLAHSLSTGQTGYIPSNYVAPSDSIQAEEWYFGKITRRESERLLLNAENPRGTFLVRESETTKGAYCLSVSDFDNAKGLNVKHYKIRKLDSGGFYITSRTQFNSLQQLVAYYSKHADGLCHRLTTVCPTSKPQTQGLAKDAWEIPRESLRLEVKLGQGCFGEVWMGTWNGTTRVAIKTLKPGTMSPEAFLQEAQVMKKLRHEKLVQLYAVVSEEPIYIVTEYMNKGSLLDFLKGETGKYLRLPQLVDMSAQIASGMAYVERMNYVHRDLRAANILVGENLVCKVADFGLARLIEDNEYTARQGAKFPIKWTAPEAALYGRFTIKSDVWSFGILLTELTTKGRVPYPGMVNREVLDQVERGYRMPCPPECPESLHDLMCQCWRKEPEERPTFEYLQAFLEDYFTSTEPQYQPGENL
Procedure: as §1
(§2) The mice were killed, and their hearts were excised. The ventricular tissue was homogenized in a buffer containing 20 mM of tris-(hydroxymethyl)-aminomethane (Tris-C1) (pH, 7.4), 150 mM of sodium chloride (NaCl), 2.5 mM of ethylenediamine tetraacetic acid (EDTA), 1% Triton-100, 10 μL/mL of phenylmethylsulfonyl fluoride (PMSF), 10 μL/mL of protein inhibitor cocktail (Pierce, Rockford, Ill.), and 10 μL/mL of phosphatase inhibitor cocktail II (Sigma-Aldrich, St. Louis, Mo.). Protein samples (5 to 20 μg) were separated via 10% sodium dodecyl sulfate polyacrylamide gel electrophoresis (SDS-PAGE) and were transferred to nitrocellulose membranes. […] The radiographic film images were scanned and analyzed with NIH ImageJ software.

wild-type mice = assay: Treatment of wild-type mice with PP1 (deaths, adverse reactions); assay type: in vivo, mouse
Procedure: as §1

ACE8/8 mice [2] = assay: Kaplan-Meier survival analysis of ACE8/8 mice (sudden cardiac death); assay type: in vivo, mouse; settings: 1.5 mg/kg intraperitoneal twice weekly, 30 days of treatment and observation, untreated ACE8/8 10.2±1.5 days
Procedure: Previously, a transgenic mouse model of RAS activation was developed by overexpressing ACE restricted to the heart (ACE8/8 mice) via replacement of the somatic ACE promoter with the cardiac-specific α-myosin heavy chain promoter (9). These mice (ACE8/8) are not hypertensive, have structurally normal hearts with a normal left ventricular ejection fraction (LVEF), and have no ventricular fibrosis.
as §1
The values are presented as the mean±the SEM. […] The survival data were analyzed with the Kaplan-Meier method, and the value was calculated with the log-rank test. The correlation was assessed with the Pearson correlation coefficient method.

Cx43 [3] = assay: Western blot of ventricular tissue, Cx43; assay type: in vivo, mouse
Procedure: as §1
The mice were killed, and their hearts were excised. The ventricular tissue was homogenized in a buffer containing 20 mM of tris-(hydroxymethyl)-aminomethane (Tris-C1) (pH, 7.4), 150 mM of sodium chloride (NaCl), 2.5 mM of ethylenediamine tetraacetic acid (EDTA), 1% Triton-100, 10 μL/mL of phenylmethylsulfonyl fluoride (PMSF), 10 μL/mL of protein inhibitor cocktail (Pierce, Rockford, Ill.), and 10 μL/mL of phosphatase inhibitor cocktail II (Sigma-Aldrich, St. Louis, Mo.). Protein samples (5 to 20 μg) were separated via 10% sodium dodecyl sulfate polyacrylamide gel electrophoresis (SDS-PAGE) and were transferred to nitrocellulose membranes. The membranes were blotted with the primary antibodies against c-Src, phosphorylated (Tyr 416) c-Src, and Cx43 (Cell Signaling, Danvers, Mass.). For a loading control, the membranes were blotted with a primary antibody against glyceraldehyde-3-phosphate dehydrogenase (GAPDH; Santa Cruz Biotech, Santa Cruz, Calif.). After treatment with secondary antirabbit or antimouse antibodies, imaging was performed with enhanced chemiluminescence. The radiographic film images were scanned and analyzed with NIH ImageJ software.

ACE8/8 mice [4] = assay: Electrophysiology study: VT inducibility by burst pacing; assay type: in vivo, mouse; settings: treated ACE8/8 mice, untreated ACE8/8 86.9%, wild-type 3.3%
Procedure: as §1
The mice were anesthetized with an intraperitoneal injection of ketamine (100 mg/kg) and xylazine (5 mg/kg). After cutdown, a 1.1-F catheter with 0.5-mm interelectrode spacing (EPR 800, Millar Instruments, Houston, Tex.) was placed into the right jugular vein and was advanced into the right ventricle. A constant current stimulator (A320, World Precision Instruments, Sarasota, Fla.) connected to a laptop computer was used for cardiac stimulation. During the experiment, body temperature was maintained at 37° C. with a warming pad. Burst pacing at cycle lengths of 100 to 50 ms was used to test for VT inducibility. A rhythm with more than 3 consecutive ventricular beats was considered to be VT.

[5] = target: T2, phosphorylated (Tyr 416) c-Src (Mus musculus, UniProt P05480); assay: Western blot of ventricular tissue, phospho-(Tyr416) c-Src; assay type: in vivo; settings: four weeks i.p. treatment, corrected for GAPDH
T2 construct: The ventricular tissue was homogenized in a buffer; from tissue; host or cells: mouse ventricular tissue (wild-type and ACE8/8 mice)
T2 sequence (P05480 whole entry): as above
Procedure: as §1, §2

gap junctions = assay: Functional assessment of Cx43: Lucifer yellow dye spread in intact heart muscle; assay type: in vivo, mouse; settings: hearts of treated ACE8/8 mice
Procedure: as §1
We used an established technique for measuring Cx43 function that involves fluorescent dye introduction and diffusion in intact heart muscle (26). Fresh hearts were obtained from wild-type, ACE8/8, ACE8/8 PP1-treated, and ACE8/8 PP3-treated mice. A sample from each heart was placed in phosphate buffered saline at 37° C., the anterior surface of the LV was punctured with a 27-gauge needle, and the sample was incubated with a droplet of 0.5% Lucifer yellow (LY) and a droplet of 0.5% Texas Red Dextran (TRD) in 150 mM of LiCl solution. […] Dye spread in longitudinal and transverse directions was assessed.

## Cc1ccc(-c2nn(C(C)(C)C)c3ncnc(N)c23)cc1 [PP1, 1-(1,1-dimethylethyl)-1-(4-methylphenyl)-1H-pyrazolo[3,4-d]pyrimidin-4-amine]
Cx43 [1]; vs untreated ACE8/8 mice
  increase in Cx43 level/content in ACE8/8 mouse hearts (immunostaining): 2 fold and 2.0 fold
c-Src
  total c-Src protein level, relative to untreated ACE8/8 mice: 58%
wild-type mice; WT mice receiving PP1 1.5 mg/kg i.p. twice weekly for 4 weeks
  death in treated wild-type mice: No death happened
wild-type mice; wild-type mice, PP1 1.5 mg/kg i.p. twice weekly for 4 weeks
  adverse reaction in treated wild-type mice: not associated with any adverse reaction
ACE8/8 mice [2]
  mean survival time: 24.7 ± 0.2 days
Cx43 [3]; ACE8/8 mice, four weeks i.p. treatment
  increase in Cx43 protein level vs untreated ACE8/8 mice (Western blot): 2.1 fold
Cx43 [3]; treated ACE8/8 mice, untreated ACE8/8 36%
  Cx43 level relative to normal level in wild-type mice (Western blot): 68%
ACE8/8 mice [4]
  VT inducibility rate: 50%
[5]
  phospho-(Tyr416) c-Src protein level, relative to untreated ACE8/8 mice: 75%
Gap junctions; untreated ACE8/8 0.14±0.01 mm, WT 0.21±0.02 mm
  overall Lucifer yellow dye spread: 0.20±0.02 mm and 0.21±0.02 mm

## Nc1ncnc2c1cnn2-c1ccccc1 [PP3, 1-phenyl-1H-pyrazolo[3,4-d]pyrimidin-4-amine]
Cx43 [1]; treated ACE8/8 mice, untreated ACE8/8 5.4±0.7%, wild-type 18.3±0.6%
  Cx43 level, ratio of stained area for Cx43 to total field of view: 6.5+/−1%
Cx43 [1]; vs untreated ACE8/8 mice
  effect on Cx43 level at the gap junctions (immunostaining), in words: did not increase
ACE8/8 mice [2]
  mean survival time: 11.2 ± 1.2 days
Cx43 [3]; ACE8/8 mice vs untreated ACE8/8
  effect on total Cx43 protein level (Western blot), in words: did not increase
Gap junctions
  effect on dye diffusion, in words: no statistically significant effect
